Measured values from the Kinase Knowledgebase extract (Sharma et al. 2016).

Each compound was assayed against PIK3CG (human) (UniProt P48736) (assay: Inhibition of PIK3CG Kinase Activity).
Sequence of PIK3CG (human) (P48736 whole entry, looked up): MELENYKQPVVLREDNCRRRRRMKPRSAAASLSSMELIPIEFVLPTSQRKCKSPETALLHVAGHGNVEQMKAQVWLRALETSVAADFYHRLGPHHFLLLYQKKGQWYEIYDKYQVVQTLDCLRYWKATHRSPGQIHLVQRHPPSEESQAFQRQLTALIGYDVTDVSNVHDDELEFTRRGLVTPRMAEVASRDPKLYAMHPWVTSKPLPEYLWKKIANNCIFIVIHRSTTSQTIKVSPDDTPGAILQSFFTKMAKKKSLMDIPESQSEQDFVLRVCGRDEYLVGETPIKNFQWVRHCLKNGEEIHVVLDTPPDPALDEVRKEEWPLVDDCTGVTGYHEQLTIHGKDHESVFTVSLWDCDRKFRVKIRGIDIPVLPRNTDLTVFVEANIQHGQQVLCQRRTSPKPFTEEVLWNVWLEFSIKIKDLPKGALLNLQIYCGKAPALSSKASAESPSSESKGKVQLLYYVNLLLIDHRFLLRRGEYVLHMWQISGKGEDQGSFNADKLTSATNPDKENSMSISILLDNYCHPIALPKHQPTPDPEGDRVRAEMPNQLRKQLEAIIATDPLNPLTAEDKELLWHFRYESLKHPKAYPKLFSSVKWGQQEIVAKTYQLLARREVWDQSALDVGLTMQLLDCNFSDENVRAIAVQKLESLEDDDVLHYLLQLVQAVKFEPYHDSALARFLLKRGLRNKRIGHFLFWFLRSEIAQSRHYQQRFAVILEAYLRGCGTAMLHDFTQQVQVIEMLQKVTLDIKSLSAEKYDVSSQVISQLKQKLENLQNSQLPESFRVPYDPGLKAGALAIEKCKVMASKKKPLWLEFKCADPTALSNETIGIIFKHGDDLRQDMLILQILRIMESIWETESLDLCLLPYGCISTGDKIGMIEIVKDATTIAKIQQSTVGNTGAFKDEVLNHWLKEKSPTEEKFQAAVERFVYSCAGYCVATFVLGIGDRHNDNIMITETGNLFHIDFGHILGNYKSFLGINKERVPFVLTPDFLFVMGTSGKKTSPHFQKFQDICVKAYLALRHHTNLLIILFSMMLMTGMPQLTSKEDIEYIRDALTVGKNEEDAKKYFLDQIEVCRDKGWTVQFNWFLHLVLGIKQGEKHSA

SMILES	IC50
CCN(CC)CCN1CCN(C(=O)c2ccc(-n3nc(C4CC4)c4c3-c3sc(NC(C)=O)nc3CC4)cc2Cl)CC1	< 600 nM
CC(=O)Nc1nc2c(s1)-c1c(c(C3CC3)nn1-c1ccc(C(=O)N[C@H]3CC[C@@H](N4CCCCC4)CC3)c(Cl)c1)CC2	< 600 nM
CC(=O)Nc1nc2c(s1)-c1c(c(C3(C)CC3)nn1-c1ccc(C(=O)NC3CCN(C(C)C)CC3)cc1Cl)CC2	< 600 nM
CC(=O)Nc1nc2c(s1)-c1c(c(C3CC3)nn1-c1ccc(C(=O)NC3CCN(CC4CCCCC4)CC3)c(Cl)c1)CC2	< 600 nM
CC(=O)Nc1nc2c(s1)-c1c(c(C3CC3)nn1-c1ccc(C(=O)N(C)Cc3ccncc3)cc1Cl)CC2	< 600 nM
CC(=O)Nc1nc2c(s1)-c1c(c(C3CC3)nn1-c1ccc(C(=O)N(C)C3CCN(CC4CCCC4)CC3)c(Cl)c1)CC2	< 600 nM
CC(=O)Nc1nc2c(s1)-c1c(c(C3CC3)nn1-c1ccccc1Br)CC2	< 600 nM
CCCN1CCC(NC(=O)c2ccc(-n3nc(C4CCCC4)c4c3-c3sc(NC(C)=O)nc3CC4)c(Cl)c2)CC1	< 600 nM
CC(=O)Nc1nc2c(s1)-c1c(c(C3CC3)nn1-c1ccc(C(=O)N[C@H]3CC[C@@H](N4CCOCC4)CC3)cc1C)CC2	< 600 nM
CCCCN1CCN(C(=O)N2CCC(n3nc(C4CC4)c4c3-c3sc(NC(C)=O)nc3CC4)CC2)CC1	< 600 nM
CC(=O)Nc1nc2c(s1)-c1c(c(C3CC3)nn1-c1ccc(C(=O)N[C@H]3CCN(C4CCCCC4)C3)cc1F)CC2	< 600 nM
CC(=O)Nc1nc2c(s1)-c1c(c(C3CCCC3)nn1-c1ccc(C(=O)NC3CCN(C4CCOCC4)CC3)cc1Cl)CC2	< 600 nM
CC(=O)Nc1nc2c(s1)-c1c(c(C3CC3)nn1-c1ccc(C(=O)NC3CCN(CC4CCCC4)CC3)c(Cl)c1)CC2	< 600 nM
CC(=O)Nc1nc2c(s1)-c1c(c(C3CC3)nn1-c1ccc(C(=O)N(C)[C@H]3CC[C@@H](N4CCCCC4)CC3)c(C)c1)CC2	< 600 nM
CCN(C(=O)c1ccc(-n2nc(C3CC3)c3c2-c2sc(NC(C)=O)nc2CC3)cc1C)[C@H]1CC[C@@H](N2CCCC2)CC1	< 600 nM
CC(=O)Nc1nc2c(s1)-c1c(c(C3CC3)nn1-c1ccc(C(=O)NC3CCN(C)CC3)cc1Cl)CC2	< 600 nM
CCN(C(=O)c1ccc(-n2nc(C3CC3)c3c2-c2sc(NC(C)=O)nc2CC3)cc1Cl)[C@H]1CC[C@@H](N2CCCC2)CC1	< 600 nM
CC(=O)Nc1nc2c(s1)-c1c(c(C3CC3)nn1-c1ccc(C(=O)NCc3ccncc3)cc1Cl)CC2	< 600 nM
CC(=O)Nc1nc2c(s1)-c1c(c(C3CC3)nn1-c1ccc(C(=O)N[C@@H]3CCN(C4CCCC4)C3)cc1F)CC2	< 600 nM
CC(=O)Nc1nc2c(s1)-c1c(c(C3CC3)nn1-c1ccc(C(=O)NC[C@H]3CCN(CC4CCCC4)C3)c(Cl)c1)CC2	< 600 nM
CC(=O)Nc1nc2c(s1)-c1c(c(C3CC3)nn1-c1ccc(C(=O)N(C)[C@H]3CC[C@@H](N4CCCC4)CC3)c(Cl)c1)CC2	< 600 nM
CC(=O)Nc1nc2c(s1)-c1c(c(C3CC3)nn1-c1ccc(C(=O)N(C)[C@H]3CCN(C4CCCCC4)C3)c(Cl)c1)CC2	< 600 nM
CCCN1CCC(NC(=O)c2ccc(-n3nc(C4CCC4)c4c3-c3sc(NC(C)=O)nc3CC4)c(Cl)c2)CC1	< 600 nM
CC(=O)Nc1nc2c(s1)-c1c(c(C3CC3)nn1-c1ccc(C(=O)NC3CCN(CC4CCCCC4)CC3)cc1F)CC2	< 600 nM
CC(=O)Nc1nc2c(s1)-c1c(c(C3CC3)nn1-c1ccc(C(=O)NC[C@@H]3CCNC3)c(Cl)c1)CC2	< 600 nM

SMILES	IC50
CC(=O)Nc1nc2c(s1)-c1c(c(C3CC3)nn1-c1ccc(C(=O)N[C@H]3CC[C@@H](N(C)CC4CC4)CC3)cc1C)CC2	< 600 nM
CC(=O)Nc1nc2c(s1)-c1c(c(C3CC3)nn1-c1ccc(CC(=O)N[C@@H]3CCN(C4CCCC4)C3)cc1Cl)CC2	< 600 nM
CC(=O)Nc1nc2c(s1)-c1c(c(C3CC3)nn1-c1ccc(C(=O)NC3CCN(C4CCOCC4)CC3)c(Cl)c1)CC2	< 600 nM
CC(=O)Nc1nc2c(s1)-c1c(c(C3CC3)nn1-c1ccc(C(=O)N[C@H]3CC[C@@H](N(C)CC4CC4)CC3)c(C)c1)CC2	< 600 nM
CC(=O)Nc1nc2c(s1)-c1c(c(C3(C)CC3)nn1-c1ccc(C(=O)NC3CCN(CC4CCCC4)CC3)cc1Cl)CC2	< 600 nM
CC(=O)Nc1nc2c(s1)-c1c(c(C3CC3)nn1-c1ccc(C(=O)N(C)[C@@H]3CCN(C4CCCC4)C3)c(C)c1)CC2	< 600 nM
CC(=O)Nc1nc2c(s1)-c1c(c(C3CCCC3)nn1-c1ccc(C(=O)NC3CCN(C(C)C)CC3)cc1Cl)CC2	< 600 nM
CC(=O)Nc1nc2c(s1)-c1c(c(C3CC3)nn1-c1ccc(C(=O)N[C@@H]3CCN(C4CCCC4)C3)cc1C)CC2	< 600 nM
CC(=O)Nc1nc2c(s1)-c1c(c(C3CC3)nn1-c1ccc(C(=O)N[C@@H]3CCN(C4CCCC4)C3)c(C)c1)CC2	< 600 nM
CNc1ccc(-n2nc(C3CC3)c3c2-c2sc(NC(C)=O)nc2CC3)c(Cl)c1	< 600 nM
CC(=O)Nc1nc2c(s1)-c1c(c(C3CC3)nn1-c1ccc(C(=O)N(C)C3CCC(N(C)CC4CCCC4)CC3)c(F)c1)CC2 (centres undefined)	< 600 nM
CC(=O)Nc1nc2c(s1)-c1c(c(C3CC3)nn1-c1ccc(N(C)C(=O)[C@H]3CC[C@@H](N4CCCC4)CC3)cc1Cl)CC2	< 600 nM
CC(=O)Nc1nc2c(s1)-c1c(c(C3CC3)nn1-c1ccc(C(=O)N(C)[C@@H]3CCN(CC4CCCC4)C3)c(F)c1)CC2	< 600 nM
CC(=O)Nc1nc2c(s1)-c1c(c(C3CC3)nn1-c1ccc(C(=O)N(C)[C@H]3CCN(C4CCCCC4)C3)cc1Cl)CC2	< 600 nM
CC(=O)Nc1nc2c(s1)-c1c(c(C3CC3)nn1-c1ccc(C(=O)N(C)[C@@H]3CCN(C4CCCC4)C3)cc1C)CC2	< 600 nM
CC(=O)Nc1nc2c(s1)-c1c(c(C3CC3)nn1-c1ccc(C(=O)NC3CCN(CC4CCCC4)CC3)cc1C)CC2	< 600 nM
CNC(=O)c1ccc(-n2nc(C3CCC3)c3c2-c2sc(NC(C)=O)nc2CC3)c(Cl)c1	< 600 nM
CC(=O)Nc1nc2c(s1)-c1c(c(C3CC3)nn1-c1ccc(C(=O)NC3CCN(C4CCCC4)CC3)c(F)c1)CC2	< 600 nM
CC(=O)Nc1nc2c(s1)-c1c(c(C3CC3)nn1C1CCN(C(=O)[C@H]3CC[C@@H](N4CCCC4)CC3)CC1)CC2	< 600 nM
CNC(=O)C1CCC(n2nc(C3CC3)c3c2-c2sc(NC(C)=O)nc2CC3)CC1 (centres undefined)	< 600 nM
CC(=O)Nc1nc2c(s1)-c1c(c(C3CC3)nn1-c1ccc(C(=O)NC3CCN(C4CCOCC4)CC3)c(F)c1)CC2	< 600 nM
CC(=O)Nc1nc2c(s1)-c1c(c(C3(C)CC3)nn1-c1ccc(C(=O)NC3CCN(C)CC3)cc1Cl)CC2	< 600 nM
CC(=O)Nc1nc2c(s1)-c1c(c(C3CC3)nn1-c1ccc(C(=O)N[C@@H]3CCN(C4CCCCC4)C3)c(C)c1)CC2	< 600 nM
CC(=O)Nc1nc2c(s1)-c1c(c(C3CC3)nn1-c1ccc(C(=O)N[C@@H]3CN4CCC3CC4)c(Cl)c1)CC2	< 600 nM
CC(=O)Nc1nc2c(s1)-c1c(c(C3CC3)nn1-c1ccc(C(=O)N(C)[C@H]3CCN(C4CCCCC4)C3)c(F)c1)CC2	< 600 nM

SMILES	IC50
CC(=O)Nc1nc2c(s1)-c1c(c(C3CC3)nn1-c1ccc(C(=O)N(C)CC3CCN(C4CCCC4)CC3)c(Cl)c1)CC2	< 600 nM
CCCN1CC[C@@H](NC(=O)c2ccc(-n3nc(C4CC4)c4c3-c3sc(NC(C)=O)nc3CC4)cc2Cl)C1	< 600 nM
CC(=O)Nc1nc2c(s1)-c1c(c(C3CCCC3)nn1-c1ccc(C(=O)N[C@H]3CC[C@@H](N4CCCC4)CC3)cc1Cl)CC2	< 600 nM
COc1cc(-n2nc(C3CC3)c3c2-c2sc(NC(C)=O)nc2CC3)ccc1C(=O)N[C@H]1CC[C@@H](N2CCCC2)CC1	< 600 nM
CC(=O)Nc1nc2c(s1)-c1c(c(C3CC3)nn1C1CCC(C(=O)N[C@H]3CC[C@@H](N4CCCC4)CC3)CC1)CC2 (some centres undefined)	< 600 nM
CC(=O)Nc1nc2c(s1)-c1c(c(C3CC3)nn1-c1ccc(C(=O)N3CCC(N(C)C4CCCC4)CC3)cc1Cl)CC2	< 600 nM
CC(=O)Nc1nc2c(s1)-c1c(c(C3CC3)nn1-c1ccc(C(=O)N(C)[C@H]3CC[C@@H](N(C)CC4CCCC4)CC3)cc1Cl)CC2	< 600 nM
CC(=O)Nc1nc2c(s1)-c1c(c(C3CC3)nn1-c1ccc(C(=O)NC[C@H]3CCN(C4CCCC4)C3)c(Cl)c1)CC2	< 600 nM
CC(=O)Nc1nc2c(s1)-c1c(c(C3CC3)nn1-c1ccc(C(=O)NC[C@H]3CCCN3C3CCCC3)c(Cl)c1)CC2	< 600 nM
CC(=O)Nc1nc2c(s1)-c1c(c(C3CCCC3)nn1-c1ccc(C(=O)NC3CCN(C4CCCC4)CC3)cc1Cl)CC2	< 600 nM
CC(=O)Nc1nc2c(s1)-c1c(c(C3CC3)nn1-c1ccc(C(=O)N(C)[C@H]3CC[C@@H](N(C)CC4CCCC4)CC3)cc1C)CC2	< 600 nM
CC(=O)Nc1nc2c(s1)-c1c(c(C3CC3)nn1C1CCC(C(=O)N(C)[C@H]3CC[C@H](N4CCCC4)CC3)CC1)CC2 (some centres undefined)	< 600 nM
CC(=O)Nc1nc2c(s1)-c1c(c(C3CC3)nn1-c1ccc(C(=O)N[C@@H]3CCN(C4CCCC4)C3)c(F)c1)CC2	< 600 nM
CC(=O)Nc1nc2c(s1)-c1c(c(C3CC3)nn1-c1ccc(C(=O)N[C@H]3CC[C@@H](N(C)CC4CC4)CC3)cc1Cl)CC2	< 600 nM
CC(=O)Nc1nc2c(s1)-c1c(c(C3CC3)nn1[C@H]1CC[C@@H](C(=O)NC3CCN(C4CCCC4)CC3)CC1)CC2	< 600 nM
CC(=O)Nc1nc2c(s1)-c1c(c(C3CC3)nn1-c1ccc(C(=O)N[C@H]3CC[C@@H](N4CCCCC4)CC3)cc1C)CC2	< 600 nM
CNC(=O)c1ccc(-n2nc(C3CC3)c3c2-c2sc(NC(C)=O)nc2CC3)c(Cl)c1	< 600 nM
CC(=O)Nc1nc2c(s1)-c1c(c(C3CC3)nn1-c1ccc(C(=O)N[C@H]3CC[C@@H](N4CCOCC4)CC3)cc1F)CC2	< 600 nM
CC(=O)Nc1nc2c(s1)-c1c(c(C3CC3)nn1C1CCN(C(=O)C3CCN(CC4CCCC4)CC3)CC1)CC2	< 600 nM
CC(=O)Nc1nc2c(s1)-c1c(c(C3CCC3)nn1-c1ccc(C(=O)NC3CCN(C4CCCC4)CC3)cc1Cl)CC2	< 600 nM
COc1cc(-n2nc(C3CC3)c3c2-c2sc(NC(C)=O)nc2CC3)ccc1C(=O)N1CCC(N2CCCC2)CC1	< 600 nM
CC(=O)Nc1nc2c(s1)-c1c(c(C3CC3)nn1-c1ccc(C(=O)N[C@H]3CN4CCC3CC4)c(Cl)c1)CC2	< 600 nM
CC(=O)Nc1nc2c(s1)-c1c(c(C3CC3)nn1-c1ccc(C(=O)NCC3CCN(C4CCCC4)CC3)cc1Cl)CC2	< 600 nM
CC(=O)Nc1nc2c(s1)-c1c(c(C3CC3)nn1-c1ccccc1C(F)(F)F)CC2	< 600 nM
